{"source": "patent US20050227296A1", "about": "“Method for indentifying integrin antagonists” (The General Hospital Corporation, a Massachusetts …, priority 1988, published 2005)", "key": {"[1]": {"test_system": "biotinylated NIF binding to human neutrophils", "experiment": "Inhibition of biotinylated NIF binding to neutrophils", "conditions": "dose dependent", "procedure": "100 μg of rNIF were labeled with sulfo-NHS-Biotin as described above. rNIF binding to resting or stimulated human neutrophils (pretreated with 10^−6 M f-met-leu-phe, for 15 minutes at 37° C., then washed) was measured. Increasing amounts of biotinylated rNIF in the absence or presence of 100-fold molar excess of unlabeled rNIF were incubated on ice for one hour with 1×10^6 neutrophils in VBSG^++ in a total volume of […]. Cells were then washed and incubated with phycoerythrin-coupled avidin (Sigma Chemical Co.) under similar conditions, washed again, fixed in 1% paraformaldehyde in PBS, and analyzed using FACScan (Becton Dickinson Co., Mountain View, Calif.). Mean channel fluorescence for each sample was then expressed as a function of the amount of biotinylated rNIF used. Background binding of phycoerythrin-streptavidin alone to neutrophils was subtracted (2.8 fluorescent units). Specific binding was obtained by […], and the values plotted according to Scatchard (Ann. N.Y. Acad. Sci. 51:660, 1949). To determine the effect of unlabeled fluid-phase-r11bA or GST on rNIF binding to neutrophils, each was preincubated at varying concentrations with biotinylated rNIF (20 ng/ml, final concentration) for 15 minutes on ice before addition of the mixture to neutrophils. The effect of mAbs on biotinylated NIF binding to neutrophils was assessed by preincubating the neutrophils with 100 μg/ml of each mAb at 4° C. for 15 minutes before addition of biotinylated NIF (20 ng/ml). The incubation then continued for one hour, followed by processing of cells for FACS analysis as described below."}, "[2]": {"target": "T1, EAiC3b (erythrocytes coated with iC3b) (Homo sapiens, UniProt P01024)", "T1 construct": "EAiC3b (erythrocytes coated with iC3b) were generated by treating EAC3b with purified human factors H and I; tissue Sigma Chemical Co. (C5-deficient human serum); host or cells: human serum C3 deposited on IgM-coated erythrocytes", "T1 sequence (P01024 749-1303 limits assumed)": "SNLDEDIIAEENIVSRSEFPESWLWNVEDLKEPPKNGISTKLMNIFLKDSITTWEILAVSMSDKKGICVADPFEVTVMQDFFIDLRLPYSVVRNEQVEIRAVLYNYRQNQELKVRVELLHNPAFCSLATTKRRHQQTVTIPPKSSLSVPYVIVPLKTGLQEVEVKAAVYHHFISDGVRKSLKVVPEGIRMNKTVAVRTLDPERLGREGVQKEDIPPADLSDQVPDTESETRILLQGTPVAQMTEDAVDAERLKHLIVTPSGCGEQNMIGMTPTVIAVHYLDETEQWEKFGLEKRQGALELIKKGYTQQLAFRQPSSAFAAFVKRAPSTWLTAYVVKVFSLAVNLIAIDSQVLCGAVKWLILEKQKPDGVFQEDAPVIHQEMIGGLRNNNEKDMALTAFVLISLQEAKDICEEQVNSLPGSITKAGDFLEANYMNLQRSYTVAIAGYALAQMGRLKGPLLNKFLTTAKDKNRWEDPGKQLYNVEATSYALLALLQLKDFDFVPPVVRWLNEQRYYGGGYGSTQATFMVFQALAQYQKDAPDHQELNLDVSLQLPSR", "T1 sequence (P01024 23-667 partner limits assumed)": "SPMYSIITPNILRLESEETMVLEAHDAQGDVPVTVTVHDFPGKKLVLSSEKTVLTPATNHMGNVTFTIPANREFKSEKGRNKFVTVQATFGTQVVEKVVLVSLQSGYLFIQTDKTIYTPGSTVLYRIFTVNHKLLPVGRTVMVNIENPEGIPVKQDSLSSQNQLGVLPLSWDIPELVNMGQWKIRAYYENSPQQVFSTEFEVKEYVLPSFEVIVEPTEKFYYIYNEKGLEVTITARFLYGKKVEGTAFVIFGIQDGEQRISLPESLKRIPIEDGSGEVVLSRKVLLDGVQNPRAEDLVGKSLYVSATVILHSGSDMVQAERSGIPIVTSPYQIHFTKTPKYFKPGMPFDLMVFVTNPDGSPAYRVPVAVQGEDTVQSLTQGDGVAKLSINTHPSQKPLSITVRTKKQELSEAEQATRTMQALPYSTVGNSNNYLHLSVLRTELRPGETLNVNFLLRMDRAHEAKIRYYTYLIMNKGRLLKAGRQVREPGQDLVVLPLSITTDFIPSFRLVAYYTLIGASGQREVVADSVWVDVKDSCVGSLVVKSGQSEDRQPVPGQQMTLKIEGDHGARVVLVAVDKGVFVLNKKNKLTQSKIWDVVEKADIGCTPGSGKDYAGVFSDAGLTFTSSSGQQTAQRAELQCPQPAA", "T1 sequence (P01024 1321-1663 partner limits assumed)": "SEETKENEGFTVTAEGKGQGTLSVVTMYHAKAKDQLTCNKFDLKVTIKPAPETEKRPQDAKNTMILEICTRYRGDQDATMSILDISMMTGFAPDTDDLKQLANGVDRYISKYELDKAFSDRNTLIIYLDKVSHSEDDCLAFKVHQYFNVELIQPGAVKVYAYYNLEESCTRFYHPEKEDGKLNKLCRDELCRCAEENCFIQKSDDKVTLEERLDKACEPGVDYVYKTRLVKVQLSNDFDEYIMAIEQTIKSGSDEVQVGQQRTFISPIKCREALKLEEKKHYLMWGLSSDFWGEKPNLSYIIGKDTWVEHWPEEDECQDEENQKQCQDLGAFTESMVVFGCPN", "experiment": "Erythrocyte binding assay, EAiC3b on immobilized proteins or peptides", "conditions": "37° C., divalent cations", "procedure": "Erythrocytes (E) coated with rabbit anti-E IgM (EA) or C3b (EAC3b) were prepared as described by Dana et al. (J. Immunol. 73:153, 1984). EAiC3b (erythrocytes coated with iC3b) were generated by treating EAC3b with purified human factors H and I, or alternatively prepared from EA using C5-deficient human serum (Sigma Chemical Co., St. Louis, Mo.). EAiC3b cells were washed and stored in isotonic veronal-buffered saline (VBS^2+), pH 7.4, containing 0.15 mM calcium-1 mM magnesium (MgCl2+CaCl2) and 1 mg/ml Soybean Trypsin Inhibitor (STI; Worthington Biochemical Co., Freehold, N.J.) at 1.5×10^8 cells/ml. EA, EAC3b or EAiC3b were labeled with 5-(and-6)-carboxy fluorescein (Molecular Probes, Eugene, Oreg.) as described by Michishita et al. (Cell 72:857, 1993).\nImmobilization of recombinant proteins and peptides: Purified recombinant A-domain was added to Immulon-2 96-well microtiter plates (Dynatech) overnight. Wells were then washed once with phosphate-buffered-saline, pH 7.4 without metals, and blocked with 1% BSA at room temperature (RT) for one hour, followed by two washings with buffer A (composed of 60% GVBS:VBS^2+ mixed in a 1:3 ratio; Arnaout et al., in Complement Receptor Type 3 at 602-615, Academic Press, FL) containing 1 mM MnCl2 or MgCl2+CaCl2. All the peptides were stocked at 1 mg/ml in water and similarly adsorbed to Immulon-2 96-well plates. Binding of the anti-CD11b mabs to the coated rA-domain was measured by ELISA and read using a plate reader (Molecular Dynamics).\nErythrocyte binding assays: Fluoresceinated EAiC3b, EAC3b or EA were resuspended to 1.5×10^8/ml in buffer A, and added […] to wells containing immobilized proteins or peptides in a total volume of […]. The plates were then briefly centrifuged to settle the erythrocytes, and allowed to incubate at 37° C. for 15 minutes in a humidified incubator with 5% CO2. For the inhibition studies, E were preincubated with each recombinant protein or pure peptide in the presence of 2% BSA for 5 minutes at RT and added to wells coated with immobilized protein or peptide without washing, unless otherwise indicated. At the end of the binding reactions, wells were washed, examined briefly by light microscopy then solubilized with 1% SDS-0.2 N NaOH. Fluorescence was quantified (excitatory wavelength, 490 nm, emission wavelength, 510 nm) using a SLM 8000 fluorometer (SLM Instruments, Urbana, Ill.). In experiments where the effects of individual divalent cations were measured, Ca^2+ and Mg^2+ were replaced with metal-free buffers or with buffers containing each cation at […], unless otherwise indicated. The effect of temperature was evaluated in the presence of 1 mM MnCl2 at 37° C. and at 4° C."}}, "data": [{"substance": "GST: glutathione-S-transferase, fusion partner of r11bA, used as control [reference compound]", "values": [{"measurement": "effect of fluid-phase protein on biotinylated rNIF binding to human neutrophils", "setting": "[1]", "result": "not"}, {"measurement": "direct binding of EAiC3b to immobilized protein or peptide", "setting": "[2]", "result": "did not bind"}]}]}
